What was measured:
KDM5C = target: T1, KDM5C (Homo sapiens, UniProt P41229); assay: MALDI–TOF MS time course / specific activity, KDM5C; type: biochemical; conditions: for specific activity: KDM5C
T1 construct: KDM5C 1– 765; made in house; host or cells: Sf9 cells
T1 sequence (P41229 1-765): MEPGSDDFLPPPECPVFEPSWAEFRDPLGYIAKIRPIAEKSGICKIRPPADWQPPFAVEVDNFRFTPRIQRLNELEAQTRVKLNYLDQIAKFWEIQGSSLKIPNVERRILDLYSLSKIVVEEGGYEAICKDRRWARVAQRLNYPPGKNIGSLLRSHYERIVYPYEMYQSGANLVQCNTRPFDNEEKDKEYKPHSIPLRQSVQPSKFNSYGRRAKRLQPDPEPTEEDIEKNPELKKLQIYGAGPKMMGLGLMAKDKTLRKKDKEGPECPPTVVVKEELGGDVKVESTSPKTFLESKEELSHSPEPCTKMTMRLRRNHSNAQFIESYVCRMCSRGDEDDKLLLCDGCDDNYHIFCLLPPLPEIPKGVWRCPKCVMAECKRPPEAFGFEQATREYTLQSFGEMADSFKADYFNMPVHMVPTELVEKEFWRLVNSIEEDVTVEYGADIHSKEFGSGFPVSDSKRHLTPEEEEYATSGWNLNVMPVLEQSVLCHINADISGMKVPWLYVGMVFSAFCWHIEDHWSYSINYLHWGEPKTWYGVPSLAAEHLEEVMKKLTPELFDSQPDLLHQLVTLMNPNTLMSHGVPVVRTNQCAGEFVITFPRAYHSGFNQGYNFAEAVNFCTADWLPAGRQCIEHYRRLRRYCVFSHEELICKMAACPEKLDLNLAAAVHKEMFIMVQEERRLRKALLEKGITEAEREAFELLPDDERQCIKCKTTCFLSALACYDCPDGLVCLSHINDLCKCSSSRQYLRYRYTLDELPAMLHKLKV
Experimental: MS-based screening assays with peptides and calf thymus histones were as reported; see Supplementary Table 6 for conditions. Time course assays were based on reported procedures. In brief, equal volumes of the enzyme and substrate solutions were combined to initiate the reaction; 10 µL of 2% (v/v) formic acid (HCOOH) in ddH2O or 100% methanol was added to 10 µL of the reaction mixture to quench reactions at different time points. Unless otherwise stated, time course assays were carried out in triplicate. In some cases, LC–MS was used instead of MALDI-TOF MS to avoid a MALDI matrix induced artefact with the hydroxylated product (Supplementary Fig. 16).
Data collected from time course assay(s) were used to plot the % conversion vs time (min) using GraphPad Prism5 version 5.04; the resultant slopes were used to fit a line with linear regression to the first-order region of the reaction. The resultant gradient was then converted from % product formation min^−1 to amount of peptide converted (demethylation and / or hydroxylation) in µM.
Supplementary Figure 4 Activity of KDM5C (black circles) with H2a(1–20)R3me2a is greater than that of KDM4E (white circles). (a) A MALDI–TOF MS time course graph of product formation (%) of KDM4E ( −14 Da/+16 Da) and KDM5C (−14 Da) reaction with H2a(1–20)R3me2a versus time (minutes). ~60% substrate depletion was reached after 105 minutes with KDM4E; ~95% of H2a(1–20)R3me2a was demethylated after 1 05 minut e s wit h K DM5 C. (b ) Comparison of specific activities of KDM4E with H2a(1–20)R3me2a (0.15 […]
bars; +/- SD; n = 3 (independent assays). See Supplementary Table 6 for assay condit ions.
(also on this page, place not known: 105 minutes KDM5C. (b) H2a(1 –20)R3me2a with conditions. specific activity (pmol·min-1·μM-1))
(1 picture or pasted object on this page, not shown here)
[ E nz ym e] [Peptide] [2OG] [Ascorbate] [(NH4)2F e(S O4)2] [TCEP] Buffer pH7.5 Enzyme Cognate substrate (mM) (mM) (mM) (mM) (mM) (mM) [HE PE S]
Supplementary Table 6 Summary of MS assay conditions for substrate screening. These conditions enabled efficient turnover of established substrates. Reactions were carried out at 37 °C unless otherwise st ated. […]

KDM4A1–1064 = assay: MALDI–TOF MS product formation, full length KDM4A1–1064; type: biochemical, human; conditions: 60 min; for % product formation: 1 µM enzyme, 10 µM peptide
Experimental: Supplementary Figure 5 H2aR3me2a is a substrate of full length KDM4A. (a) Representative MALDI–T OF
MS (60 -minute incubation) (from top to bottom) K DM4A 1–1064, KDM4A1–35 9 and KDM4E1–337 w it h H 2 a( 1–
Representative data are shown from n = 3 (independent assays). Charge state of labelled ions: [MH]+. (b)
Bar graph comparing % product format ion of H2a(1 –20)R3me2a by KDM4A1–10 64, KDM4A1–359 and KDM4E1–
33 7, analysed by MALDI–TOF MS. n = 2/3 (independent assays). Conditions: 1 µM KDM4A1–359 and KDM4E1–
(NH4)2Fe(SO4)2, and 50 mM HEPES (pH 7.5), 1 mM TCEP, 0.02% (v/v) Triton-X . […]

## Ac - SGR [ me 2a ] GKQ GGKAR AKAKT R SSR [H2a(1–20)R3me2a, H2a(1–20)R3me2a without a biotin tag]
KDM5C; 0 min, replicate 1
  product formation (−14 Da): 0%
KDM5C; 0 min, replicate 2
  product formation (−14 Da): 0%
KDM5C; 0 min, replicate 3
  product formation (−14 Da): 0%
KDM5C; 5 min, replicate 1
  product formation (−14 Da): -4.611%
KDM5C; 5 min, replicate 2
  product formation (−14 Da): 1.214%
KDM5C; 5 min, replicate 3
  product formation (−14 Da): 6.766%
KDM5C; 15 min, replicate 1
  product formation (−14 Da): 6.633%
KDM5C; 15 min, replicate 2
  product formation (−14 Da): 6.871%
KDM5C; 15 min, replicate 3
  product formation (−14 Da): 19.5603%
KDM5C; 30 min, replicate 1
  product formation (−14 Da): 38.5829%
KDM5C; 30 min, replicate 3
  product formation (−14 Da): 44.7254%
KDM5C; 45 min, replicate 1
  product formation (−14 Da): 64.1732%
KDM5C; 45 min, replicate 2
  product formation (−14 Da): 64.8428%
KDM5C; 45 min, replicate 3
  product formation (−14 Da): 72.262%
KDM5C; 60 min, replicate 1
  product formation (−14 Da): 81.9609%
KDM5C; 60 min, replicate 2
  product formation (−14 Da): 81.6263%
KDM5C; 60 min, replicate 3
  product formation (−14 Da): 82.8852%
KDM5C; 75 min, replicate 1
  product formation (−14 Da): 85.9119%
KDM5C; 75 min, replicate 2
  product formation (−14 Da): 87.0734%
KDM5C; 75 min, replicate 3
  product formation (−14 Da): 90.3242%
KDM5C; 90 min, replicate 1
  product formation (−14 Da): 92.0497%
KDM5C; 90 min, replicate 2
  product formation (−14 Da): 90.1323%
KDM5C; 90 min, replicate 3
  product formation (−14 Da): 97.0348%
KDM5C; 105 min, replicate 1
  product formation (−14 Da): 95.3885%
KDM5C; 105 min, replicate 2
  product formation (−14 Da): 93.3144%
KDM5C; 105 min, replicate 3
  product formation (−14 Da): 100%
KDM5C; mean of n = 3, SD 0.006
  specific activity: 0.37 pmol min^−1 µM^−1
KDM5C; repeat 1
  specific activity: 0.3803 pmol·min-1·μM-1
KDM5C; repeat 2
  specific activity: 0.3775 pmol·min-1·μM-1
KDM5C; repeat 3
  specific activity: 0.3654 pmol·min-1·μM-1
KDM5C; ratio of specific activities
  RDM activity of KDM5C relative to KDM4E (times): 2.5 times
KDM4A1–1064; replicate 1
  % product formation: 19.2569%
KDM4A1–1064; replicate 2
  % product formation: 31.6947%
KDM4A1–1064; replicate 3
  % product formation: 39.2291%
KDM4A1–1064; MALDI–TOF MS, n = 3
  –14 Da mass shift (demethylation): –14 Da mass shifts

From article PMC11603075 (Communications Biology, 2024)
